Measurements reported in the NIST ThermoML archive (doi:10.1021/je600519p).

Assay: xn = mol fraction of the nth substance listed
Settings: 101 kPa, Liquid

CC(=O)c1ccccc1 [acetophenone] + CCOC(=O)OCC
Settings	mass density [kg/m3]	speed of sound [m/s]	viscosity [mPa·s]
293.15 K, x2 = 0.0511	1025.19	1443	1.754
293.15 K, x2 = 0.1014	1023.01	1405	1.688
293.15 K, x2 = 0.1501	1020.69	1377	1.625
293.15 K, x2 = 0.1996	1018.39	1347	1.564
293.15 K, x2 = 0.2465	1016.19	1322	1.507
293.15 K, x2 = 0.3041	1013.29	1297	1.441
293.15 K, x2 = 0.3467	1011.15	1280	1.391
293.15 K, x2 = 0.4001	1008.46	1265	1.329
293.15 K, x2 = 0.4507	1005.89	1251	1.276
293.15 K, x2 = 0.4888	1003.9	1242	1.238
293.15 K, x2 = 0.5506	1000.67	1231	1.174
293.15 K, x2 = 0.6038	997.77	1222	1.122
293.15 K, x2 = 0.6498	995.25	1218	1.079
293.15 K, x2 = 0.7104	991.92	1215	1.025
293.15 K, x2 = 0.7513	989.53	1213	0.989
293.15 K, x2 = 0.8078	986.29	1210	0.941
293.15 K, x2 = 0.8522	983.66	1208	0.906
293.15 K, x2 = 0.8993	980.83	1207	0.869
293.15 K, x2 = 0.9488	977.82	1206	0.833
303.15 K, x2 = 0.0511	1016.4	1408	1.455
303.15 K, x2 = 0.1014	1014.09	1369	1.402
303.15 K, x2 = 0.1501	1011.77	1339	1.352
303.15 K, x2 = 0.1996	1009.35	1312	1.302
303.15 K, x2 = 0.2465	1007.04	1290	1.257
303.15 K, x2 = 0.3041	1004.02	1265	1.203
303.15 K, x2 = 0.3467	1001.78	1249	1.165
303.15 K, x2 = 0.4001	998.99	1232	1.118
303.15 K, x2 = 0.4507	996.27	1217	1.075
303.15 K, x2 = 0.4888	994.18	1208	1.042
303.15 K, x2 = 0.5506	990.73	1198	0.993
303.15 K, x2 = 0.6038	987.73	1194	0.952
303.15 K, x2 = 0.6498	985.06	1193	0.918
303.15 K, x2 = 0.7104	981.54	1192	0.875
303.15 K, x2 = 0.7513	979.05	1191	0.848
303.15 K, x2 = 0.8078	975.68	1190	0.811
303.15 K, x2 = 0.8522	972.91	1189	0.784
303.15 K, x2 = 0.8993	969.91	1188	0.755
303.15 K, x2 = 0.9488	966.78	1187	0.727
313.15 K, x2 = 0.0511	1007.58	1365	1.232
313.15 K, x2 = 0.1014	1005.19	1326	1.188
313.15 K, x2 = 0.1501	1002.73	1292	1.148
313.15 K, x2 = 0.1996	1000.2	1263	1.11
313.15 K, x2 = 0.2465	997.78	1238	1.073
313.15 K, x2 = 0.3041	994.63	1212	1.03
313.15 K, x2 = 0.3467	992.31	1196	0.998
313.15 K, x2 = 0.4001	989.35	1180	0.961
313.15 K, x2 = 0.4507	986.55	1168	0.925
313.15 K, x2 = 0.4888	984.35	1160	0.9
313.15 K, x2 = 0.5506	980.71	1153	0.86
313.15 K, x2 = 0.6038	977.48	1152	0.827
313.15 K, x2 = 0.6498	974.69	1151	0.799
313.15 K, x2 = 0.7104	971.04	1150	0.765
313.15 K, x2 = 0.7513	968.47	1149	0.742
313.15 K, x2 = 0.8078	964.89	1148	0.711
313.15 K, x2 = 0.8522	961.99	1147	0.688
313.15 K, x2 = 0.8993	958.99	1146	0.665
313.15 K, x2 = 0.9488	955.63	1145	0.641
323.15 K, x2 = 0.0511	998.79	1305	1.057
323.15 K, x2 = 0.1014	996.27	1265	1.023
323.15 K, x2 = 0.1501	993.68	1234	0.991
323.15 K, x2 = 0.1996	991.08	1208	0.959
323.15 K, x2 = 0.2465	988.56	1185	0.929
323.15 K, x2 = 0.3041	985.24	1164	0.893
323.15 K, x2 = 0.3467	982.8	1151	0.868
323.15 K, x2 = 0.4001	979.74	1137	0.837
323.15 K, x2 = 0.4507	976.77	1126	0.809
323.15 K, x2 = 0.4888	974.49	1121	0.787
323.15 K, x2 = 0.5506	970.76	1118	0.755
323.15 K, x2 = 0.6038	967.47	1117	0.727
323.15 K, x2 = 0.6498	964.54	1116	0.704
323.15 K, x2 = 0.7104	960.63	1115	0.676
323.15 K, x2 = 0.7513	957.86	1114	0.656
323.15 K, x2 = 0.8078	954.13	1113	0.631
323.15 K, x2 = 0.8522	951.07	1112	0.612
323.15 K, x2 = 0.8993	947.76	1111	0.592
323.15 K, x2 = 0.9488	944.32	1110	0.573
